Experimental data published in patent US12129246B1, “Hydroquinazoline derivatives for the treatment of a disease or disorder” (Novartis AG, priority 2023, dated 2024).
Read-outs that look alike come from different tables or passages of the source.

What was measured:
monkey NPR1 = monkey NPR1 (Macaca fascicularis, UniProt A0A7N9DBT9); experiment: Cellular cGMP production assay, monkey NPR1 expressing CHO-K1 cells (CisBio HTRF); assay type: cell-based; settings: for Monkey NPR1 Amax (% of ANP): maximum cGMP production as percentage of the maximum cGMP produced with ANP
Procedure, shortened: (§1)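 12-pt 3-fold dose-response, top 30 μM; buffer PBS + 0.1% BSA + 1 mM IBMX (PDE inhibitor); 30 min, 37 °C. Lyse, add cGMP-d2 + anti-cGMP-cryptate, 1 h RT. Ex 317 / em 665 nm; Delta F converted to cGMP via calibrator standard curve.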

human NPR1 = molecular target: T1, human NPR1 (Homo sapiens, UniProt P16066); experiment: Cellular cGMP production assay, human NPR1 expressing CHO-K1 cells (CisBio HTRF); assay type: cell-based; settings: for AC50: cGMP production, 30 min at 37° C., 12-point dose-response from 30 μM; for Human NPR1 Amax (% of ANP): maximum cGMP production as percentage of the maximum cGMP produced with ANP
T1 construct: host or cells: CHO-K1
T1 sequence (P16066 33-1061): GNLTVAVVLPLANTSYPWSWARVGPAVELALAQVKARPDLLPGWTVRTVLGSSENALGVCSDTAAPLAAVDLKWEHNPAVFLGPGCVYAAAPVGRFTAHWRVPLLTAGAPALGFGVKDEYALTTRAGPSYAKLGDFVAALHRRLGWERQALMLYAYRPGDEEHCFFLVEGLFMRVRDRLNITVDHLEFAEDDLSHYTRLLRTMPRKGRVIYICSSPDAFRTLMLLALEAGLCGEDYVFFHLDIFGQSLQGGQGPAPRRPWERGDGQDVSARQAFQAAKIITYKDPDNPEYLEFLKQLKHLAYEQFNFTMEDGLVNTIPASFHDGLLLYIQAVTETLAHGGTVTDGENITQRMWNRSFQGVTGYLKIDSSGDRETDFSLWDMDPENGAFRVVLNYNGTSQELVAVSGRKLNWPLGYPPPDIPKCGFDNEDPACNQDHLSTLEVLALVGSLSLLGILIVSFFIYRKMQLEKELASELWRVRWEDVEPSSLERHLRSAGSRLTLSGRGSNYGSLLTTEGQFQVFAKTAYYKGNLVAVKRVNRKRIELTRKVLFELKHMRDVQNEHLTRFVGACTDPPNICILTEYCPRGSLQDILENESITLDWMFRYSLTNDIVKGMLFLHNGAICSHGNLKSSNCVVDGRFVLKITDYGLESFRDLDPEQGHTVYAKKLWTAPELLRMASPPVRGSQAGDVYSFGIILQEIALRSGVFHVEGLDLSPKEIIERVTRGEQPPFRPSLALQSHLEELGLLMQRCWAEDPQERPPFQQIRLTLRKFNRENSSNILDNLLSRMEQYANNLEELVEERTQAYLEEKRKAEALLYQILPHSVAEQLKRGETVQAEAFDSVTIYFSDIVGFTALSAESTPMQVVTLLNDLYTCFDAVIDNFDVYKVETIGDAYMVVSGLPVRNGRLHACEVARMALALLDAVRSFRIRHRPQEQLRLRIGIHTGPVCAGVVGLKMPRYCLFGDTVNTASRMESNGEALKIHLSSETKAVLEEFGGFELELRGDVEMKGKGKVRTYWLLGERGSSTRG
Procedure, shortened: as §1

[1] = cGMP production, monkey NPR1 CHO-K1 cells, 30 min at 37° C., 12-point dose-response from 30 μM, read-out: Monkey NPR1 AC50

monkey NPR1, sequence (A0A7N9DBT9 entry or part of it): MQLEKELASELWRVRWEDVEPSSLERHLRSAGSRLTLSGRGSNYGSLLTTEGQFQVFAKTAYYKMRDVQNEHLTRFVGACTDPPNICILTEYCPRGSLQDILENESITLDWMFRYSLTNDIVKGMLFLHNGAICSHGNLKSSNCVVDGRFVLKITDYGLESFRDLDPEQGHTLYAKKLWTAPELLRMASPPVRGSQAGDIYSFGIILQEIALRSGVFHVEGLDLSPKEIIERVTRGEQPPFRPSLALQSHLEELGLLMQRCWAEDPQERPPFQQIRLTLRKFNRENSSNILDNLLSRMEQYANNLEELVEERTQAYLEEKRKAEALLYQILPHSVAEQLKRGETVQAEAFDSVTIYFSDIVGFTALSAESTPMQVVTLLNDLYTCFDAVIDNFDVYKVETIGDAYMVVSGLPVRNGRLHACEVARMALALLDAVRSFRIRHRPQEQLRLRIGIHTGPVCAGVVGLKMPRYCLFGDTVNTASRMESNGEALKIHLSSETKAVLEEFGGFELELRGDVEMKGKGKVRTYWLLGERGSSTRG

Structure (SMILES)	AC50 (monkey NPR1; [1])	Monkey NPR1 Amax (% of ANP) (monkey NPR1; monkey NPR1 CHO-K1 cells)	AC50 (human NPR1)	Human NPR1 Amax (% of ANP) (human NPR1)	AC50 (monkey NPR1)
CC[C@H]([C@H]1CC[C@H](C(=O)O)CC1)N(C)c1nc2c(c(N[C@@H](CN3CC4CCC3C4)c3cnn(C)c3)n1)C[C@](C)(c1ccccc1)CC2 (stereo partly drawn) [Compound 68, (1R,4r)-4-((1R)-1-(((6R)-4-(((1R)-2-(2-azabicyclo[2.2.1]heptan-2-yl)-1-(1-methyl-1H-pyrazol-4-yl)ethyl)amino)-6-methyl-6-phenyl-5,6,7,8-tetrahydroquinazolin-2-yl)(methyl)amino)propyl)cyclohexane-1-carboxylic acid]	95 nM	101.066 % of ANP	234 nM	96.721 % of ANP	–
CC[C@@H](N(C)c1nc2c(c(N[C@@H](CN3CCCCCC3)c3cnn(C)c3)n1)C[C@H](c1cccc(F)c1)CC2)C12CC(C(=O)O)(C1)C2 [Compound 1, 3-((R)-1-(((R)-4-(((R)-2-(azepan-1-yl)-1-(1-methyl-1H-pyrazol-4-yl)ethyl)amino)-6-(3-fluorophenyl)-5,6,7,8-tetrahydroquinazolin-2-yl)(methyl)amino)propyl)bicyclo[1.1.1]pentane-1-carboxylic acid]	10 nM	97.462 % of ANP	14 nM	93.788 % of ANP	–
CC[C@H]([C@H]1CC[C@](F)(C(=O)O)CC1)N(C)c1nc2c(c(N[C@H](CN3CCC[C@H](C)C3)c3cnn(C)c3)n1)C[C@H](c1ccccc1)CC2 [Compound 82, (1S,4s)-1-fluoro-4-((R)-1-(methyl((R)-4-(((S)-1-(1-methyl-1H-pyrazol-4-yl)-2-((S)-3-methylpiperidin-1-yl)ethyl)amino)-6-phenyl-5,6,7,8-tetrahydroquinazolin-2-yl)amino)propyl)cyclohexane-1-carboxylic acid]	278 nM	106.556 % of ANP	272 nM	96.493 % of ANP	–
CC[C@@H](Nc1nc2c(c(N[C@@H](CN3CCCCC3)c3cnn(CC)c3)n1)C[C@@H](c1cccc(F)c1)CC2)[C@H]1CC[C@H](C(=O)O)CC1 [Compound 50, (1R,4r)-4-((R)-1-(((S)-4-(((R)-1-(1-ethyl-1H-pyrazol-4-yl)-2-(piperidin-1-yl)ethyl)amino)-6-(3-fluorophenyl)-5,6,7,8-tetrahydroquinazolin-2-yl)amino)propyl)cyclohexane-1-carboxylic acid]	135 nM	107.881 % of ANP	187 nM	93.357 % of ANP	–
CC[C@@H](Nc1nc2c(c(N[C@@H](CN3CCCCC3)c3cnn(CC)c3)n1)C[C@H](c1cccc(F)c1)CC2)[C@H]1CC[C@H](C(=O)O)CC1 [Compound 30, (1R,4r)-4-((R)-1-(((R)-4-(((R)-1-(1-ethyl-1H-pyrazol-4-yl)-2-(piperidin-1-yl)ethyl)amino)-6-(3-fluorophenyl)-5,6,7,8-tetrahydroquinazolin-2-yl)amino)propyl)cyclohexane-1-carboxylic acid]	77 nM	99.091 % of ANP	140 nM	99.863 % of ANP	–
CC[C@@H](N(C)c1nc2c(c(N[C@@H](CN3C4CCCC3CCC4)c3ccnn3C)n1)C[C@H](c1ccccc1)CC2)C12CC(C(=O)O)(C1)C2 [Compound 172, 3-((R)-1-(((R)-4-(((S)-2-((1R,5R)-9-azabicyclo[3.3.1]nonan-9-yl)-1-(1-methyl-1H-pyrazol-5-yl)ethyl)amino)-6-phenyl-5,6,7,8-tetrahydroquinazolin-2-yl)(methyl)amino)propyl)bicyclo[1.1.1]pentane-1-carboxylic acid]	–	111.107 % of ANP	3680 nM	94.632 % of ANP	2580 nM
CC[C@H]([C@H]1CC[C@H](C(=O)O)CC1)N(C)c1nc2c(c(N[C@@H](CN3CCCCC3)c3ccc(=O)n(CC)c3)n1)C[C@H](c1ccccc1)CC2 [Compound 148, (1R,4r)-4-((R)-1-(((R)-4-(((R)-1-(1-ethyl-6-oxo-1,6-dihydropyridin-3-yl)-2-(piperidin-1-yl)ethyl)amino)-6-phenyl-5,6,7,8-tetrahydroquinazolin-2-yl)(methyl)amino)propyl)cyclohexane-1-carboxylic acid]	834 nM	102.851 % of ANP	1080 nM	93.518 % of ANP	–
CC[C@@H](Nc1nc2c(c(N[C@@H](CN3CC4CCC3C4)c3cnn(C)c3)n1)C[C@H](c1ccccc1)CC2)[C@H]1CC[C@H](C(=O)O)CC1 (stereo partly drawn) [Compound 58, (1R,4r)-4-((1R)-1-(((6R)-4-(((1R)-2-(2-azabicyclo[2.2.1]heptan-2-yl)-1-(1-methyl-1H-pyrazol-4-yl)ethyl)amino)-6-phenyl-5,6,7,8-tetrahydroquinazolin-2-yl)amino)propyl)cyclohexane-1-carboxylic acid]	149 nM	95.422 % of ANP	201 nM	99.715 % of ANP	–
CC[C@H]([C@H]1CC[C@H](C(=O)O)CC1)N(C)c1nc2c(c(N[C@@H](CN3C4CCCC3CC4)c3cnn(C)c3)n1)C[C@H](c1cccc(F)c1)CC2 [Compound 33, (1R,4r)-4-((1R)-1-(((6R)-4-(((1R)-2-(8-azabicyclo[3.2.1]octan-8-yl)-1-(1-methyl-1H-pyrazol-4-yl)ethyl)amino)-6-(3-fluorophenyl)-5,6,7,8-tetrahydroquinazolin-2-yl)(methyl)amino)propyl)cyclohexane-1-carboxylic acid]	–	106.934 % of ANP	145 nM	99.163 % of ANP	104 nM
CC[C@H]([C@H]1CC[C@H](C(=O)O)CC1)N(C)c1nc2c(c(N[C@@H](CN3CCCC3)c3ccccc3)n1)C[C@H](c1ccccc1)CC2 [Compound 146, (1R,4r)-4-((R)-1-(methyl((R)-6-phenyl-4-(((R)-1-phenyl-2-(pyrrolidin-1-yl)ethyl)amino)-5,6,7,8-tetrahydroquinazolin-2-yl)amino)propyl)cyclohexane-1-carboxylic acid]	702 nM	96.864 % of ANP	1070 nM	104.657 % of ANP	–
CC[C@H]([C@H]1CC[C@H](C(=O)O)CC1)N(C)c1nc2c(c(N[C@@H](CN3CCC[C@H](C)C3)c3ccc(=O)n(C)c3)n1)C[C@H](c1cccc(F)c1)CC2 [Compound 53, (1R,4r)-4-((R)-1-(((R)-6-(3-fluorophenyl)-4-(((R)-1-(1-methyl-6-oxo-1,6-dihydropyridin-3-yl)-2-((S)-3-methylpiperidin-1-yl)ethyl)amino)-5,6,7,8-tetrahydroquinazolin-2-yl)(methyl)amino)propyl)cyclohexane-1-carboxylic acid]	101 nM	101.261 % of ANP	190 nM	101.185 % of ANP	–
CC[C@@H](Nc1nc2c(c(N[C@@H](CN3CCCC3)c3ccccc3)n1)C[C@H](c1ccccc1)CC2)[C@H]1CC[C@H](C(=O)O)CC1 [Compound 85, (1R,4r)-4-((R)-1-(((R)-6-phenyl-4-(((R)-1-phenyl-2-(pyrrolidin-1-yl)ethyl)amino)-5,6,7,8-tetrahydroquinazolin-2-yl)amino)propyl)cyclohexane-1-carboxylic acid]	238 nM	95.638 % of ANP	285 nM	102.461 % of ANP	–
CC[C@H]([C@H]1CC[C@H](C(=O)O)CC1)N(C)c1nc2c(c(N[C@@H](CN3CCC[C@H](O)C3)c3cnn(CC)c3)n1)C[C@H](c1cccc(F)c1)CC2 [Compound 163, (1R,4r)-4-((R)-1-(((R)-4-(((R)-1-(1-ethyl-1H-pyrazol-4-yl)-2-((S)-3-hydroxypiperidin-1-yl)ethyl)amino)-6-(3-fluorophenyl)-5,6,7,8-tetrahydroquinazolin-2-yl)(methyl)amino)propyl)cyclohexane-1-carboxylic acid]	1270 nM	102.145 % of ANP	1710 nM	103.903 % of ANP	–
